Assay results: the NIST ThermoML archive (doi:10.1021/je060107n)

Assay: mn = molality of the nth substance listed, in mol/kg
Conditions: 101 kPa, Liquid; for mass density: Pycnometric method; for viscosity: Capillary tube (Ostwald / Ubbelohde) method; for speed of sound: Linear variable-path acoustic interferometer

O=[N+]([O-])[O-].O=[N+]([O-])[O-].[Mg+2] [magnesium nitrate] + O
Conditions | mass density [kg/m3] | speed of sound [m/s] | viscosity [mPa·s]
319.45 K, m1 = 3.118 | 1259.2 | – | –
319.5 K, m1 = 3.17 | 1268.1 | – | –
319.55 K, m1 = 0.0528 | 994.98 | – | –
319.55 K, m1 = 1.262 | 1110.2 | – | –
319.9 K, m1 = 2.131 | 1184.8 | – | –
319.9 K, m1 = 4.728 | 1364.8 | – | –
319.95 K, m1 = 0.0145 | 990.65 | – | –
320.2 K, m1 = 5.134 | 1388.4 | – | –
320.25 K, m1 = 2.793 | 1235.8 | – | –
320.3 K, m1 = 1.827 | 1159.7 | – | –
320.3 K, m1 = 4.039 | 1319.5 | – | –
320.65 K, m1 = 0.2491 | 1014.7 | – | –
320.85 K, m1 = 1.694 | 1146.9 | – | –
320.9 K, m1 = 0.3405 | 1023.3 | – | –
320.9 K, m1 = 5.282 | 1396.6 | – | –
321.25 K, m1 = 0.5931 | 1047.4 | – | –
321.35 K, m1 = 3.096 | 1257.2 | – | –
321.6 K, m1 = 2.493 | 1211.3 | – | –
321.75 K, m1 = 0.9898 | 1085.2 | – | –
321.8 K, m1 = 4.285 | 1335.1 | – | –
321.9 K, m1 = 4.728 | 1363.5 | – | –
321.95 K, m1 = 0.0528 | 993.94 | – | –
322.1 K, m1 = 0.0145 | 989.61 | – | –
322.2 K, m1 = 4.883 | 1370 | – | –
322.25 K, m1 = 2.793 | 1234.5 | – | –
322.35 K, m1 = 2.584 | 1219.2 | – | –
322.45 K, m1 = 3.704 | 1297.7 | – | –
322.45 K, m1 = 4.039 | 1318.2 | – | –
322.75 K, m1 = 0.2491 | 1013.6 | – | –
322.75 K, m1 = 4.051 | 1318.5 | – | –
322.8 K, m1 = 4.97 | 1375.7 | – | –
323.05 K, m1 = 4.403 | 1341.3 | – | –
323.15 K, m1 = 0.0145 | – | 1545.7 | 0.5591
323.15 K, m1 = 0.0528 | – | 1548 | 0.5708
323.15 K, m1 = 0.2491 | – | 1559.2 | 0.6023
323.15 K, m1 = 0.3405 | – | 1563.6 | –
323.15 K, m1 = 0.5931 | – | – | 0.6703
323.15 K, m1 = 0.6173 | – | 1576.6 | –
323.15 K, m1 = 0.896 | – | 1593.9 | –
323.15 K, m1 = 0.9898 | – | 1600.3 | 0.7676
323.15 K, m1 = 1.262 | – | 1614.9 | 0.8482
323.15 K, m1 = 1.525 | – | 1631.4 | –
323.15 K, m1 = 1.827 | – | 1651.2 | 1.028
323.15 K, m1 = 2.131 | – | 1667.3 | 1.145
323.15 K, m1 = 2.493 | – | 1689.2 | –
323.15 K, m1 = 2.584 | – | – | 1.353
323.15 K, m1 = 2.793 | – | 1707.5 | –
323.15 K, m1 = 3.096 | – | – | 1.629
323.15 K, m1 = 3.118 | – | 1725.2 | –
323.15 K, m1 = 3.17 | – | 1731.8 | –
323.15 K, m1 = 3.329 | – | – | 1.772
323.15 K, m1 = 3.501 | – | 1744 | –
323.15 K, m1 = 3.704 | – | – | 2.028
323.15 K, m1 = 3.757 | – | 1758.7 | –
323.15 K, m1 = 4.039 | – | – | 2.319
323.15 K, m1 = 4.051 | – | 1770.9 | –
323.15 K, m1 = 4.285 | – | 1783.2 | –
323.15 K, m1 = 4.403 | – | 1789.3 | –
323.15 K, m1 = 4.728 | – | – | 3.107
323.15 K, m1 = 4.883 | – | 1811.5 | –
323.15 K, m1 = 4.907 | – | – | 3.418
323.15 K, m1 = 5.134 | – | 1828.2 | –
323.15 K, m1 = 5.282 | 1395.1 | – | 3.975
323.4 K, m1 = 0.6173 | 1049 | – | –
323.5 K, m1 = 1.525 | 1130.6 | – | –
323.5 K, m1 = 3.757 | 1300.1 | – | –
323.55 K, m1 = 3.17 | 1265.4 | – | –
323.6 K, m1 = 3.118 | 1256.7 | – | –
323.75 K, m1 = 1.262 | 1107.8 | – | –
323.95 K, m1 = 0.9898 | 1084 | – | –
323.95 K, m1 = 2.131 | 1182.5 | – | –
324.25 K, m1 = 1.827 | 1157.4 | – | –
324.45 K, m1 = 5.134 | 1385.4 | – | –
324.95 K, m1 = 1.694 | 1144.5 | – | –
325.25 K, m1 = 5.282 | 1393.7 | – | –
